Results taken from patent US6355799B1, “Substituted benzene compounds, process for their preparation, and herbicidal and defoliant compositions containing them” (ISK Americas Incorporated, priority 1997, dated 2002).

Tests used:
Type in all cases: in vivo
[1] = test system: redroot pigweed (Amaranthus retroflexus, AMARE); test: Pre-emerge test, greenhouse herbicide activity screening; settings: rated 14 days after application, 0 = no damage, 100 = complete death
Summary of the method: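 Visual ratings on a 0-100 scale (0 no damage, 100 all plants dead) were taken at 14 days after treatment. Rates of 15-1000 g ai/ha in acetone, 187 l/ha, were sprayed onto soil one day after planting (pre-emerge) or onto 2-3 leaf plants with 0.25% v/v surfactant (post-emerge).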

[2] = test system: barnyardgrass (Echinochloa crus-galli, ECHCG); test: as above; settings: rated 14 days after application, 0 = no damage, 100 = complete death
Summary of the method: (§1)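 Plants grown in 10 cm pots of sandy loam mix received acetone-dissolved compounds through a moving flat-fan nozzle. Doses ranged from 15 to 1000 g ai/ha. Pre-emerge pots were seeded one day earlier, post-emerge pots 8–21 days earlier. Fourteen days on, each pot was graded 0–100 for damage.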

[3] = test system: common ragweed (Ambrosia artemisizfolia L., AMBEL); test: as above; settings: rated 14 days after application, 0 = no damage, 100 = complete death
Summary of the method: as §1

[4] = test system: green foxtail (Setaria viridis, SETVI); test: as above; settings: rated 14 days after application, 0 = no damage, 100 = complete death
Summary of the method: as §1

[5] = test system: ivyleaf morningglory (Ipomoea hederacea, IPOHE); test: as above; settings: rated 14 days after application, 0 = no damage, 100 = complete death
Summary of the method: as §1

[6] = test system: johnsongrass (Sorghum halepense, SORHA); test: as above; settings: rated 14 days after application, 0 = no damage, 100 = complete death
Summary of the method: as §1

[7] = test system: lambsquarters (Chenopodium album, CHEAL); test: as above; settings: rated 14 days after application, 0 = no damage, 100 = complete death
Summary of the method: as §1

[8] = test system: large crabgrass (Digitaria sanguinalis, DIGSA); test: as above; settings: rated 14 days after application, 0 = no damage, 100 = complete death
Summary of the method: as §1

[9] = test system: sicklepod (Cassia obtusifolia, CASOB); test: as above; settings: rated 14 days after application, 0 = no damage, 100 = complete death
Summary of the method: as §1

[10] = test system: velvetleaf (Abutilon theophrasti, ABUTH); test: as above; settings: rated 14 days after application, 0 = no damage, 100 = complete death
Summary of the method: as §1

[11] = test system: field corn (Zea mays L., var. Dekalb 535, CORN); test: Pre-emerge test, crop safety; settings: rated 14 days after application, 0 = no damage, 100 = complete death
Summary of the method: (§2)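 Applied at 15–1000 g ai/ha from acetone in 187 l/ha spray volume. Post-emergence applications included 0.25% v/v non-ionic surfactant and reached plants sown 8–21 days before. Pre-emergence applications were incorporated by surface watering. Efficacy or crop damage was rated on a 0–100 scale after 14 days.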

[12] = test system: upland rice (Oryza sp., var. Tebonnet, RICE); test: Pre-emerge test, crop safety; settings: rated 14 days after application, 0 = no damage, 100 = complete death
Summary of the method: as §2

[13] = test system: barnyardgrass (Echinochloa crus-galli, ECHCG); test: Post-emerge test, greenhouse herbicide activity screening; settings: post-emerge, 14 days after application, rating scale 0-100
Summary of the method: (§3)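 Compounds in acetone were track-sprayed at 15–1000 g ai/ha: pre-emergence onto soil sown the previous day, then top-watered to incorporate and later bottom-watered; post-emergence onto 2–3 leaf plants with 0.25% v/v surfactant, bottom-watered only. Ratings on a 0–100 phytotoxicity scale were taken at day 14.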

[14] = test system: common ragweed (Ambrosia artemisizfolia L., AMBEL); test: as above; settings: post-emerge, 14 days after application, rating scale 0-100
Summary of the method: as §3

[15] = test system: green foxtail (Setaria viridis, SETVI); test: as above; settings: post-emerge, 14 days after application, rating scale 0-100
Summary of the method: as §3

[16] = test system: ivyleaf morningglory (Ipomoea hederacea, IPOHE); test: as above; settings: post-emerge, 14 days after application, rating scale 0-100
Summary of the method: as §3

[17] = test system: johnsongrass (Sorghum halepense, SORHA); test: as above; settings: post-emerge, 14 days after application, rating scale 0-100
Summary of the method: as §3

[18] = test system: lambsquarters (Chenopodium album, CHEAL); test: as above; settings: post-emerge, 14 days after application, rating scale 0-100
Summary of the method: as §3

[19] = test system: large crabgrass (Digitaria sanguinalis, DIGSA); test: as above; settings: post-emerge, 14 days after application, rating scale 0-100
Summary of the method: as §3

[20] = test system: redroot pigweed (Amaranthus retroflexus, AMARE); test: as above; settings: post-emerge, 14 days after application, rating scale 0-100
Summary of the method: as §3

[21] = test system: sicklepod (Cassia obtusifolia, CASOB); test: as above; settings: post-emerge, 14 days after application, rating scale 0-100
Summary of the method: as §3

[22] = test system: velvetleaf (Abutilon theophrasti, ABUTH); test: as above; settings: post-emerge, 14 days after application, rating scale 0-100
Summary of the method: as §3

[23] = test system: field corn (Zea mays L., var. Dekalb 535, CORN); test: Post-emerge test, crop safety; settings: post-emerge, 14 days after application, rating scale 0-100
Summary of the method: (§4)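 Each test used a mechanized track sprayer delivering 187 l/ha of acetone solution at 15–1000 g ai/ha. Post-emerge foliage at 2–3 leaves was treated with added 0.25% v/v non-ionic surfactant and bottom-watered only. Injury was assessed on day 14, where 100 means total kill.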

[24] = test system: upland rice (Oryza sp., var. Tebonnet, RICE); test: Post-emerge test, crop safety; settings: post-emerge, 14 days after application, rating scale 0-100
Summary of the method: as §4

COc1c(Cl)cc(F)c(-n2c(=O)cc(C(F)(F)F)n(C)c2=O)c1NC(=O)c1ccc(I)cc1 [2-66]
Pre-emerge Herbicidal Activity, phytotoxicity rating (0-100), AMARE ([1]; 63 g ai/ha): 100
Pre-emerge Herbicidal Activity, phytotoxicity rating (0-100), AMARE ([1]; 250 g ai/ha): 100
Pre-emerge Herbicidal Activity, phytotoxicity rating (0-100), ECHCG ([2]; 63 g ai/ha): 0
Pre-emerge Herbicidal Activity, phytotoxicity rating (0-100), ECHCG ([2]; 250 g ai/ha): 60
Pre-emerge Herbicidal Activity, phytotoxicity rating (0-100), AMBEL ([3]; 63 g ai/ha): 0
Pre-emerge Herbicidal Activity, phytotoxicity rating (0-100), AMBEL ([3]; 250 g ai/ha): 60
Pre-emerge Herbicidal Activity, phytotoxicity rating (0-100), SETVI ([4]; 63 g ai/ha): 95
Pre-emerge Herbicidal Activity, phytotoxicity rating (0-100), SETVI ([4]; 250 g ai/ha): 100
Pre-emerge Herbicidal Activity, phytotoxicity rating (0-100), IPOHE ([5]; 63 g ai/ha): 40
Pre-emerge Herbicidal Activity, phytotoxicity rating (0-100), IPOHE ([5]; 250 g ai/ha): 80
Pre-emerge Herbicidal Activity, phytotoxicity rating (0-100), SORHA ([6]; 63 g ai/ha): 20
Pre-emerge Herbicidal Activity, phytotoxicity rating (0-100), SORHA ([6]; 250 g ai/ha): 95
Pre-emerge Herbicidal Activity, phytotoxicity rating (0-100), CHEAL ([7]; 63 g ai/ha): 100
Pre-emerge Herbicidal Activity, phytotoxicity rating (0-100), CHEAL ([7]; 250 g ai/ha): 100
Pre-emerge Herbicidal Activity, phytotoxicity rating (0-100), DIGSA ([8]; 63 g ai/ha): 60
Pre-emerge Herbicidal Activity, phytotoxicity rating (0-100), DIGSA ([8]; 250 g ai/ha): 99
Pre-emerge Herbicidal Activity, phytotoxicity rating (0-100), CASOB ([9]; 63 g ai/ha): 35
Pre-emerge Herbicidal Activity, phytotoxicity rating (0-100), CASOB ([9]; 250 g ai/ha): 90
Pre-emerge Herbicidal Activity, phytotoxicity rating (0-100), ABUTH ([10]; 63 g ai/ha): 100
Pre-emerge Herbicidal Activity, phytotoxicity rating (0-100), ABUTH ([10]; 250 g ai/ha): 100
Pre-emerge phytotoxicity rating (0-100), crop damage, CORN ([11]; 63 g ai/ha): 0
Pre-emerge phytotoxicity rating (0-100), crop damage, CORN ([11]; 250 g ai/ha): 15
Pre-emerge phytotoxicity rating (0-100), crop damage, RICE ([12]; 63 g ai/ha): 10
Pre-emerge phytotoxicity rating (0-100), crop damage, RICE ([12]; 250 g ai/ha): 60
phytotoxicity rating ECHCG ([13]; 63 g ai/ha): 70
phytotoxicity rating ECHCG ([13]; 250 g ai/ha): 50
phytotoxicity rating AMBEL ([14]; 63 g ai/ha): 100
phytotoxicity rating AMBEL ([14]; 250 g ai/ha): 75
phytotoxicity rating SETVI ([15]; 63 g ai/ha): 90
phytotoxicity rating SETVI ([15]; 250 g ai/ha): 80
phytotoxicity rating IPOHE ([16]; 63 g ai/ha): 100
phytotoxicity rating IPOHE ([16]; 250 g ai/ha): 90
phytotoxicity rating SORHA ([17]; 63 g ai/ha): 10
phytotoxicity rating SORHA ([17]; 250 g ai/ha): 50
phytotoxicity rating CHEAL ([18]; 63 g ai/ha): 100
phytotoxicity rating CHEAL ([18]; 250 g ai/ha): 100
phytotoxicity rating DIGSA ([19]; 63 g ai/ha): 10
phytotoxicity rating DIGSA ([19]; 250 g ai/ha): 20
phytotoxicity rating AMARE ([20]; 63 g ai/ha): 100
phytotoxicity rating AMARE ([20]; 250 g ai/ha): 100
phytotoxicity rating CASOB ([21]; 63 g ai/ha): 100
phytotoxicity rating CASOB ([21]; 250 g ai/ha): 70
phytotoxicity rating ABUTH ([22]; 63 g ai/ha): 100
phytotoxicity rating ABUTH ([22]; 250 g ai/ha): 100
phytotoxicity rating CORN ([23]; 63 g ai/ha): 15
phytotoxicity rating CORN ([23]; 250 g ai/ha): 70
phytotoxicity rating RICE ([24]; 63 g ai/ha): 50
phytotoxicity rating RICE ([24]; 250 g ai/ha): 90
